We go through three compounds from patent US20240423946A1, “COMPOUND FOR TREATING NON-ALCOHOLIC FATTY LIVER DISEASE AND RELATED DISEASES” (Algiax Pharmaceuticals GmbH, priority 2021, published 2024).

Holding throughout (type): cell-based
The test system of one experiment is Caspase 7. In words: Human apoptosis array, Caspase 7 protein in lysates of treated HepG2 cells. Particulars: HepG2, HK4 100 nM and PA. As to the method:
Markers of apoptosis were analysed in the cell lysates of treated HepG2s with a human apoptosis array (RayBiotech, Peachtree Corners, GA) according to manufacturer's protocol. The total protein content was measured using the Pierce BCA protein assay kit (Thermo Fisher Scientific). Membranes were incubated with 250 μg of total protein from untreated and treated HepG2 cells. The spot intensities were quantified after an exposure of 500 ms using the ChemStudio analysis software (Analytik Jena) and normalized to the untreated control after background subtraction with the design spots for it.

A further experiment deals with NF-κB subunit p65. The experiment can be described thus: Western blot, phospho-NF-κB p65 to NF-κB p65 ratio in HepG2 cells. As to the method: Beside excessive hepatic fat accumulation, inflammation is one of the critical steps in the progression of NAFL to NASH. As an indicator of inflammation, phosphorylation of the transcription factor NF-κB was monitored by a phospho-p65 specific antibody using protein extraction and western blotting.
HepG2 cells were homogenized in lysis buffer including a protease and phosphatase inhibitor cocktail. Cell lysates were centrifuged at 12.000 rpm for 15 min. The protein concentrations were determined using the Pierce BCA protein assay kit (Thermo Fisher Scientific). 20 μg of Proteins were resolved on 4-20% gradient gels (Bio-Rad, Hercules, CA) and transferred onto an Immun-Blot PVDF membrane (Bio-Rad). Membranes were blocked with 5% non-fat dry milk or bovine serum albumin in TBPS containing 0.1% Tween for 1 h at RT, followed by an overnight incubation with the respective primary antibody: Phospho-NF-κB p65 and NF-κB p65 (Cell Signaling Technology, Frankfurt, Germany). Membranes were incubated with the corresponding HRP-coupled secondary antibody. Protein bands were visualized using an ECL Western blot detection substrate (Bio-Rad). The band intensities were quantified with the ChemStudio analysis software (Analytik Jena, Jena, Germany) and normalized by GAPDH band intensity.
In general terms: A western blot detects proteins with antibodies after separation by electrophoresis.

For experiment [1], the system named is primary human hepatocytes. In words: Palmitate-induced apoptosis, caspase 3/7 activity in human primary hepatocytes. To be noted: 24 h. An excerpt:
Human primary hepatocytes were purchased from Thermo Fisher and cultured according to the manufacturer's instructions. […] To achieve finale palmitate concentrations, sodium palmitate was complexed with a preheated BSA (Carl Roth, Karlsruhe, Germany) solution at a 2.6:1 molar ratio.

Another experiment deals with HepG2 cells. The experiment can be described thus: Palmitate-induced apoptosis, Caspase-Glo 3/7 activity in HepG2 cells. Particulars: 24 h. How it is done: NAFLD is characterized by excessive hepatic fat accumulation which leads to cell death, including apoptosis, of liver cells in the progression of the disease. HepG2s (liver cell line) were seeded in a 96-well plate and cultured for 48 h before inducing cell death/apoptosis with 100 μM, 150 μM, 200 μM, 250 μM, 300 μM BSA-coupled palmitic acid (PA). A concentration-response curve to palmitate for apoptosis expressed as percentage of control of Caspase 3/7 (apoptosis marker) activity of HepG2 cells treated for 24 h were determined. As a positive control for apoptosis 2 μM staurosporine was used. Caspase 3/7 activity after 24 h was measured by a Caspase-Glo® 3/7 Assay (Promega) as described in the manufacturer's protocol. Luminescence was recorded after an incubation step of 35 min using the plate-reader luminometer of a Cytation™ 5.
HepG2 cells were treated with palmitate acid (200 μM) in the presence or absence of HK4 (100 nM) and GABA (100 μM), as well as with the vehicle BSA and the positive control for apoptosis staurosporine (STP) (2 μM) for 24 h. As a negative control an apoptosis inhibitor (API) (100 μM) was used. As described in Example I Caspase 3/7 activity after 24 h was measured by a Caspase-Glo® 3/7 Assay (Promega).

In the case of `Cc1cc(NC(=S)/C(C#N)=C(\O)C2CC2)ccc1C#N` [HK4, 2-Cyano-N-(4-cyano-3-methyl-phenyl)-3-cyclopropyl-3-hydroxy-thioacrylamide], the “Caspase 7 protein expression vs. PA alone” value in the experiment with Caspase 7 came to 60.91±4.18%. The “Effect on phosphorylation of the NF-κB subunit p65 compared to untreated cells” value in the experiment with NF-κB subunit p65 (HepG2, HK4 alone) was “no effect”. Further, the “Ratio of phosphorylated NF-κB to non-phosphorylated NF-κB subunit p65, % of PA” value with NF-κB subunit p65 (HepG2, pre-incubation with HK4 then palmitate acid, PA = 100%) turned out to be 55.24±10.64%. For the same compound, in experiment [1] (HK4 (10 μM) 1 h prior to palmitate 100 μM), the “Caspase 3/7 activity provoked by palmitate 100 μM, HK4 pre-treatment” value is given as 58.73±16.86%. In experiment [1] (HK4 (10 μM) 1 h prior to palmitate 200 μM), the “Caspase 3/7 activity provoked by palmitate 200 μM, HK4 pre-treatment” value was 57.13±21.47%. Besides, the “Caspase 3/7 activity provoked by palmitate 200 μM, with HK4” value in the experiment with HepG2 cells (HepG2, HK4 100 nM + palmitate 200 μM) amounted to 47.32±19.56%. Besides, the “Caspase 3/7 activity compared to untreated control cells” value with HepG2 cells (HepG2, HK4 alone (100 nM)) is reported as 21.60±2.52%.

As to `NCCCC(=O)O` [GABA, gamma-Aminobutyric acid], the “PA-induced apoptosis rate (caspase 3/7 activity), with GABA” value in the experiment with HepG2 cells (HepG2, GABA 100 μM + palmitate 200 μM) was 764.9±16.72%.

With `CCCCCCCCCCCCCCCC(=O)O` [Palmitate acid, palmitic acid, reference compound], in experiment [1] (palmitate 100 μM alone), the “Caspase 3/7 activity provoked by palmitate 100 μM” value was determined as 147.3±31.3%. The “Caspase 3/7 activity provoked by palmitate 200 μM” value stood at 155.1±3.78% in experiment [1] (palmitate 200 μM alone) and 1130±103.3% with HepG2 cells (HepG2, palmitate 200 μM alone). In the experiment on HepG2 cells (HepG2, palmitate acid 100 μM alone), the “Caspase 3/7 activity (apoptosis), percentage of control” value turned out to be 342.2±12.25%.
